{"source": "patent US20090098115A1", "about": "“Cell lines and animal models of HER2 expressing tumors” (priority 2006, published 2009)", "key": {"BT-474 cells": {"tested_on": "BT-474 cells", "experiment": "In vitro cell proliferation assay (Cell Titer-Glo), BT-474", "assay_type": "cell-based, human", "conditions": "BT-474, 0.0001 ug/ml to 10 ug/ml, 72 h (FIGS. 7A, 8A)", "method": "(§1) BT-474 and BT-474EE1 cells were plated in 96-well microtiter plates and incubated overnight at 37° in a humidified atmosphere of 5% CO2. […] After incubation for 72 h, Cell Titer-Glo reagent (Promega, Madison, Wis.) was added to the wells, and after a 10-min incubation at room temperature, the luminescent signal was recorded."}, "BT-474EEI cells": {"tested_on": "BT-474EEI cells", "experiment": "In vitro cell proliferation assay (Cell Titer-Glo), BT-474EEI", "assay_type": "cell-based, human", "conditions": "0.0001 ug/ml to 10 ug/ml, 72 h (FIGS. 7B, 8B)", "method": "as §1"}}, "data": [{"smiles": "C#Cc1cccc(Nc2ncnc3cc(OCCOC)c(OCCOC)cc23)c1", "note": "[Tarceva, Erlotinib]", "values": [{"measurement": "cell proliferation", "setting": "BT-474 cells", "value": "decreased with high doses"}, {"measurement": "cell proliferation", "setting": "BT-474EEI cells", "value": "reduced at high concentrations"}]}]}
